Test results reported in PubChem BioAssay (NCI).
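Method: 48-hour compound exposure of cells in 96-well plates, five concentrations, linear interpolation of endpoints. TGI is the concentration that stops growth completely.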

What was measured:
Assay in all cases: inhibition of tumour cell growth, NCI panel, 48 h
SF-268 CNS = system: SF-268 CNS
SK-MEL-28 melanoma = system: SK-MEL-28 melanoma
RXF 393 renal = system: RXF 393 renal
M14 melanoma = system: M14 melanoma
MDA-MB-435 = system: MDA-MB-435
OVCAR-3 ovarian = system: OVCAR-3 ovarian
TK-10 renal = system: TK-10 renal
U251 CNS = system: U251 CNS
OVCAR-8 ovarian = system: OVCAR-8 ovarian
SF-295 CNS = system: SF-295 CNS
786-0 renal = system: 786-0 renal
HL-60(TB) leukemia = system: HL-60(TB) leukemia
K-562 leukemia = system: K-562 leukemia
NCI-H460 lung = system: NCI-H460 lung
T-47D breast = system: T-47D breast
PC-3 prostate = system: PC-3 prostate
A498 renal = system: A498 renal
SW-620 colon = system: SW-620 colon
HCT-116 colon = system: HCT-116 colon
MDA-N = system: MDA-N
HOP-92 NSCLC = system: HOP-92 NSCLC
SK-MEL-5 melanoma = system: SK-MEL-5 melanoma
MOLT-4 leukemia = system: MOLT-4 leukemia
MALME-3M melanoma = system: MALME-3M melanoma
CAKI-1 renal = system: CAKI-1 renal
OVCAR-5 ovarian = system: OVCAR-5 ovarian
NCI/ADR-RES ovarian = system: NCI/ADR-RES ovarian
SK-MEL-2 melanoma = system: SK-MEL-2 melanoma
SNB-19 CNS = system: SNB-19 CNS
UO-31 renal = system: UO-31 renal
BT-549 breast = system: BT-549 breast
LOX IMVI melanoma = system: LOX IMVI melanoma
UACC-62 melanoma = system: UACC-62 melanoma
OVCAR-4 ovarian = system: OVCAR-4 ovarian
MDA-MB-231 breast = system: MDA-MB-231 breast
NCI-H226 lung = system: NCI-H226 lung
SR leukemia = system: SR leukemia
SN12C renal = system: SN12C renal
HS 578T breast = system: HS 578T breast
DU-145 prostate = system: DU-145 prostate
EKVX NSCLC = system: EKVX NSCLC
NCI-H522 lung = system: NCI-H522 lung
KM12 colon = system: KM12 colon
HT29 colon = system: HT29 colon
IGROV1 ovarian = system: IGROV1 ovarian
NCI-H23 lung = system: NCI-H23 lung
HCT-15 colon = system: HCT-15 colon
HOP-62 NSCLC = system: HOP-62 NSCLC
A549 NSCLC = system: A549 NSCLC
UACC-257 melanoma = system: UACC-257 melanoma
ACHN renal = system: ACHN renal
COLO 205 colon = system: COLO 205 colon
MCF7 breast = system: MCF7 breast
HCC-2998 colon = system: HCC-2998 colon
CCRF-CEM leukemia = system: CCRF-CEM leukemia
SK-OV-3 ovarian = system: SK-OV-3 ovarian
RPMI-8226 leukemia = system: RPMI-8226 leukemia
SNB-75 CNS = system: SNB-75 CNS
SF-539 CNS = system: SF-539 CNS

Measured: TGI

O=[As](O)(O)c1ccc(N=Nc2ccc([As](=O)(O)O)cc2)cc1
> 100 µM: SF-268 CNS | SK-MEL-28 melanoma | RXF 393 renal | M14 melanoma | MDA-MB-435 | OVCAR-3 ovarian | TK-10 renal | U251 CNS | OVCAR-8 ovarian | SF-295 CNS | 786-0 renal | HL-60(TB) leukemia | K-562 leukemia | NCI-H460 lung | T-47D breast | PC-3 prostate | A498 renal | SW-620 colon | HCT-116 colon | MDA-N | HOP-92 NSCLC | SK-MEL-5 melanoma | MOLT-4 leukemia | MALME-3M melanoma | CAKI-1 renal | OVCAR-5 ovarian | NCI/ADR-RES ovarian | SK-MEL-2 melanoma | SNB-19 CNS | UO-31 renal | BT-549 breast | LOX IMVI melanoma | UACC-62 melanoma | OVCAR-4 ovarian | MDA-MB-231 breast | NCI-H226 lung | SR leukemia | SN12C renal | HS 578T breast | DU-145 prostate | EKVX NSCLC | NCI-H522 lung | KM12 colon | HT29 colon | IGROV1 ovarian | NCI-H23 lung | HCT-15 colon | HOP-62 NSCLC | A549 NSCLC | UACC-257 melanoma | ACHN renal

COC(=O)C1C(OC(=O)C(Cl)(c2ccccc2)c2ccccc2)CC2CCC1N2C (centres undefined)
> 100 µM: SF-268 CNS | SK-MEL-28 melanoma | RXF 393 renal | M14 melanoma | MDA-MB-435 | OVCAR-3 ovarian | TK-10 renal | U251 CNS | OVCAR-8 ovarian | SF-295 CNS | 786-0 renal | HL-60(TB) leukemia | K-562 leukemia | COLO 205 colon | MCF7 breast | T-47D breast | PC-3 prostate | SW-620 colon | HCT-116 colon | MDA-N | SK-MEL-5 melanoma | MOLT-4 leukemia | MALME-3M melanoma | CAKI-1 renal | OVCAR-5 ovarian | NCI/ADR-RES ovarian | HCC-2998 colon | SNB-19 CNS | UO-31 renal | BT-549 breast | LOX IMVI melanoma | CCRF-CEM leukemia | UACC-62 melanoma | MDA-MB-231 breast | SK-OV-3 ovarian | NCI-H226 lung | SR leukemia | SN12C renal | RPMI-8226 leukemia | DU-145 prostate | EKVX NSCLC | NCI-H522 lung | KM12 colon | HT29 colon | SNB-75 CNS | IGROV1 ovarian | NCI-H23 lung | HCT-15 colon | HOP-62 NSCLC | A549 NSCLC | UACC-257 melanoma | SF-539 CNS | ACHN renal
